Measurements from patent US12128015B2, “APE/REF1 inhibitors for the treatment of cancer” (Chapman University, priority 2021, dated 2024).
Entries after “also recorded” stand apart in the source; their conditions may differ. Like-named read-outs stand apart in the source and are kept apart here.

Legend:
HT1080 cells = conditions: cited from earlier work
[1] = test system: human melanoma A375 and SK-Mel-28 cells; test: MTT cytotoxicity in human melanoma A375 and SK-Mel-28 cells (Table 1); format: cell-based; conditions: for IC50: read-out: IC50 (50% inhibition of cell survival), MTT assay; for anti-melanoma activity (MTT): in words
From the text: (§1) All the cells were passaged once reaching 70-90% confluence.
(§2) (MTT) metabolized by alive cells.

[2] = test system: Hermes 3A melanoblast cells; test: MTT cell viability assay, Hermes 3A melanoblast cells; format: cell-based, human; conditions: 72 h treatment
From the text: as §2

[3] = test system: Hermes 4A melanoblast cells; test: MTT cell viability assay, Hermes 4A melanoblast cells; format: cell-based, human; conditions: 72 h treatment
From the text: as §2

AP-1 transactivation = test: Luciferase assay to determine AP-1 transactivation activities in A375 cells; format: cell-based, human; conditions: for inhibition of H2O2-activated AP-1 transactivation: compound 10 μM
From the text: FIG. 3. Inhibition of AP-1 transcriptional activation in human melanoma A375 cells by compound 2. A375 cells were transfected with an AP-1 luciferase reporter plasmid. […] After treatments, the cells were harvested to determine the luciferase activity, expressed as a fold of control without any treatment. The results normalized by cell numbers represent means±S.D of triplicates. *, p<0.05 compared to control; **, p<0.05 compared to H2O2-treatment.
3×AP1pGL3 (3×AP-1 in pGL3-basic; Addgene plasmid #40342), which contains three canonical AP-1 binding sites (TGACTCA) upstream of a minimal promoter fragment containing a TATA box in the luciferase reporter plasmid pGL3-basic. 3×AP1pGL3 was transfected to human melanoma A375 cells using Lipofectamine 2000 following the manufacturer's instructions (Invitrogen). […]
After different treatments, the cells were rinsed twice with phosphate-buffered saline (PBS). Cells were then scraped from the plates in PBS and pelleted for 4 min at 4° C. in a microcentrifuge at 12,000 rpm. Cell pellets were resuspended in 100 μL luciferase lysis buffer for luciferase assay as described (Promega). Luciferase activity measured in relative light units reflects the AP-1 transcription rate and was detected by a SpectraMax M5 UV VIZ Plate Reader. Cell count was conducted for normalization. All the samples were studied in duplicate, and readings were taken in triplicate. Each experiment was repeated at least two times.

[4] = test system: A375 metastatic melanoma xenograft; test: In vivo xenograft melanoma (A375 cells in nude mice)
Description: FIG. 4. Compound 2 inhibited the tumor growth of human melanoma in vivo. Metastatic melanoma A375 cells were injected into male nude mice subcutaneously on the flank. Compound 2 was administered i.p. daily at the dose of 5 mg/kg. The growth of the tumor was measured daily, and tumor volume was measured by digital calipers and determined using the formula (mm^3)=[L×(W2)]/2. Tumor growth was presented as a fold of increase in size (mean±SD). *, p<0.05 compared to control (N=7; Compound 2 group, N=5).
The Institutional Animal Care and Use Committee approved all the animal procedures at Chapman University (IACUC #2020-1131). Male nude mice (Nu/Nu) were purchased from Charles River and were housed and maintained in the Chapman University vivarium under pathogen-free conditions. Human A375 metastatic melanoma cells were injected subcutaneously into the mouse's flank (1×10^6 cells per mouse). Three days-post tumor cell injection, mice were randomized into different groups. The treatment group was injected with compound 2 (5 mg/kg/day, i.p.) for 21 days. The growth of the tumors was monitored three times a week and measured using digital Vernier calipers. The size of the tumors was calculated as tumor volume (mm^3)=[L×(W2)]/2. The mice were sacrificed at the end of the experiment.
(§3) Given the limited water solubility, lead compound 2 (in DMSO) was further diluted in normal saline, the drug suspension, and sonicated at room temperature for 15 min. before injection to nude mice. […] The drug suspension was made fresh daily and injected into mice immediately after the compounding.

[5] = HPLC analysis of the drug suspension after compounding; format: physicochemical; conditions: DMSO solution diluted in normal saline, sonicated 15 min at room temperature
Description: as §3

[6] = test system: Hermes 1 melanoblast cells; conditions: 72 h
A375 melanoma cells = test: MTT cell viability assay, A375 melanoma cells; format: cell-based, human; conditions: for cell viability: 1 μM, A375 cells (FIG. 2C), control = vehicle 0.1% DMSO
From the text: as §1, §2

[7] = Water solubility: drug precipitation in the media; format: physicochemical
Sk-Mel-28 melanoma cells = conditions: read-out: IC50, cell viability; Sk-Mel-28 cells, MTT, 72 h
Description: Human malignant melanoma cells (A375, CRL-1619™; Sk-Mel-28, HTB-72™) were purchased from ATCC®. Cells were cultured in Dulbecco's Modified Eagle Medium (DMEM) (ATCC #30-2002) or Eagles' Minimum Essential Medium (EMEM) (ATCC #30-2003) supplemented with 10% fetal bovine serum (FBS) (ATCC #30-2020) at 37° C. in 5% CO2 incubator. All the cells were passaged once reaching 70-90% confluence.

[8] = test system: human breast cancer cells; conditions: collective cell migration; chemo-invasion and colony formation with docetaxel; cited from earlier work
[9] = Phase I trial, cited from earlier work
melanoma cell lines = test: Toxicity of PNRI-299 in the inventors' tested melanoma cell lines; format: cell-based
[10] = 72 h, human melanoma A375 and SK-Mel-28 cells (compound 11: average of the two lines)

SMILES: O=C(O)c1cc2cccc([N+](=O)[O-])c2[nH]1 [CRT0044876]
- concentration up to which no toxicity was seen (HT1080 cells; HT1080 cells, CRT0044876 alone): > 400 µM
- concentration at which synergistic enhancement of methyl methanesulphonate cytotoxicity was evident (HT1080 cells): 200 µM

SMILES: O=C(/C=C/c1ccccc1)NCCCCCCCCCCCCNC(=O)/C=C/c1ccccc1 [Compound 2, (2E,2′E)-N,N′-(Dodecane-1,12-diyl)bis(3-phenylacrylamide)]
- dose dependence of cytotoxicity ([1]; MTT, 72 h): Cytotoxicity is not dose-
- cytotoxicity [2]: no significant cytotoxicity
- cytotoxicity [3]: no significant cytotoxicity
- H2O2-activated AP-1 activity (luciferase) (AP-1 transactivation; compound 0.5 μM, H2O2 100 μM, 48 h, H2O2 alone 2.3-fold of control): 95.7 % of control
- inhibition of basal AP-1 dependent transcription (AP-1 transactivation; without H2O2): did not display any inhibition
- tumor size ([4]; 5 mg/kg i.p. daily, after 21-day treatment, nude mice): 44.7 % of control
- systemic toxicity ([4]; 5 mg/kg i.p. daily, nude mice): without producing any apparent systemic toxicities; also recorded: no significant systemic toxicity observed
- tumor growth inhibition compared to the control group ([4]; 5 mg/kg i.p., xenograft mouse model): 44.7%
- chemical stability after compounding [5]: no evidence of chemical structural change after compounding
- cytotoxicity ([6]; human): more sensitive to compound 2, but the cytotoxicity was not elevated with increasing the concentrations

SMILES: O=C(/C=C/c1ccc(O)cc1)NCCCCCCCCCCCCNC(=O)/C=C/c1ccc(O)cc1 [Compound 4]
- IC50 [1, 10]: > 10000 nM
- anti-melanoma activity (MTT) [1]: significant loss of anti-tumor activity compared to compound 2

SMILES: O=C(/C=C/c1ccc(O)cc1)NCCCCCCNC(=O)/C=C/c1ccc(O)cc1 [Compound 5, (2E,2′E)-N,N′-(Hexane-1,6-diyl)bis(3-(4-hydroxyphenyl)acrylamide)]
- IC50 ([1]; Homo sapiens, 72 h): > 50000 nM
- anti-melanoma activity (MTT) [1]: loss of anti-melanoma activity compared to compound 2

SMILES: O=C(/C=C/c1cccc(O)c1)NCCCCCCCCCCCCNC(=O)/C=C/c1cccc(O)c1 [Compound 7, (2E,2′E)-N,N′-(dodecane-1,12-diyl)bis(3-(3-hydroxyphenyl)acrylamide)]
- IC50 ([1]; Homo sapiens, 72 h): > 10000 nM
- anti-melanoma activity (MTT) [1]: significant loss of anti-tumor activity compared to compound 2

SMILES: NCCCCCCCCCCCCNC(=O)/C=C/c1cccc(O)c1 [Compound 8, (E)-N-(12-Aminododecyl)-3-(3-hydroxyphenyl) acrylamide]
- IC50 ([1]; Homo sapiens, 72 h): > 25000 nM

SMILES: O=C(/C=C/c1ccccc1)NCCCCCCCCCCCCNC(=O)/C=C/c1cccc(O)c1 [Compound 9, (E)-N-(12-Cinnamamidododecyl)-3-(3-hydroxyphenyl) acrylamide]
- IC50 ([1]; Homo sapiens, 72 h): > 10000 nM
- anti-melanoma activity (MTT) [1]: poor anti-melanoma activity

SMILES: NCCCCCCCCCCCCNC(=O)C=Cc1ccccc1 [Compound 10, N-(12-Aminododecyl)cinnamamide]
- IC50 ([1]; Homo sapiens, 72 h): > 25000 nM

SMILES: O=C(C=Cc1ccccc1)NCCCCCCCCCCCCNC(=O)/C=C/c1ccc(O)cc1 [Compound 11, (E)-N-(12-Cinnamamidododecyl)-3-(4-hydroxyphenyl) acrylamide]
- cell viability (A375 melanoma cells): 19 % of control
- IC50 (A375 melanoma cells; A375 cells, MTT, 72 h): 88 nM
- IC50 [1, 10]: 79 ± 13 nM
- anti-melanoma activity (MTT) [1]: potent cytotoxic effect
- inhibition of H2O2-activated AP-1 transactivation (AP-1 transactivation; H2O2 100 μM, 48 h): failed to inhibit
- precipitation concentration relative to compound 2 [7]: approximately 8 folds
- water solubility and stability ([7]; compared to compound 2): improved water solubility and stability compared to compound 2
- concentration at which drug precipitation was evident ([7]; in the media): -20 µM
- IC50 (Sk-Mel-28 melanoma cells): 70 nM
- IC50 ([6]; read-out: IC50, cell viability, Hermes 1 melanoblast cells, MTT): 274 nM

SMILES: O=C(/C=C/c1ccccc1)NCCCCCCNC(=O)/C=C/c1ccccc1 [Compound 12, (2E,2′E)-N,N′-(hexane-1,6-diyl)bis(3-phenylacrylamide)]
- IC50 ([1]; Homo sapiens, 72 h): > 10000 nM

SMILES: CCCCCCCCC/C(=C\C1=C(C)C(=O)C(OC)=C(OC)C1=O)C(=O)O [Compound E3330]
- cell viability (A375 melanoma cells): 102.6 % of control
- inhibition of H2O2-activated AP-1 transactivation (AP-1 transactivation; H2O2 100 μM, 48 h): only reduced the AP-1 activity marginally, which was not statistically significant
- concentration at which inhibitory activity was evident [8]: 50 µM
- patients with disease stabilization for ≥4 cycles ([9]; cancer patients): six of nineteen
- duration of treatment with stable disease, one melanoma patient [9]: 245 days

SMILES: N#Cc1cccc(-n2c(=O)n3n(c2=O)C(C(=O)NCc2ccccc2)=CC(=O)C3)c1 [PNRI-299]
- concentration up to which neither toxicity nor synergistic effects were observed (melanoma cell lines): > 100 µM
